Measurements taken from ChEMBL document CHEMBL5528067, “From Synergy to Monotherapy: Discovery of Novel 2,4,6-Trisubstituted Triazine Hydrazone Derivatives with Potent Antifungal Potency In Vitro and In Vivo” (J Med Chem, 2024).
Converted amounts (≈) assume the structure as drawn. The source made the active and inactive calls. The calls are words filed in the database; no cut-off is given here.

Experiments:
[1] = Metabolic stability in mouse liver microsomes assessed as half life measured upto 60 mins by LC-MS/MS analysis; format: ADME, Microsome
[2] = Metabolic stability in mouse liver microsomes assessed as intrinsic clearance measured per mg of protein upto 60 mins by LC-MS/MS analysis; format: ADME, Microsome; conditions: read-out: CLH
Candida albicans [3] = test: Antifungal activity against FCZ-resistant Candida albicans strain 901 assessed as growth inhibition in presence of fluconazole measured after 48 hrs incubation by CLSI based micro-dilution broth method; format: functional
Candida albicans [4] = test: Synergistic antifungal activity against FCZ-resistant Candida albicans strain 901 assessed as fractional inhibitory concentration index measured after 48 hrs in presence of FCZ by CLSI based micro-dilution broth method; format: functional
Candida albicans [5] = test: Antifungal activity against FCZ-resistant Candida albicans strain 904 assessed as growth inhibition measured after 48 hrs incubation by CLSI based micro-dilution broth method; format: functional
Candida albicans [6] = test: Antifungal activity against FCZ-resistant Candida albicans strain 904 assessed as growth inhibition in presence of fluconazole measured after 48 hrs incubation by CLSI based micro-dilution broth method; format: functional
Candida albicans [7] = test: Synergistic antifungal activity against FCZ-resistant Candida albicans strain 904 assessed as fractional inhibitory concentration index measured after 48 hrs in presence of FCZ by CLSI based micro-dilution broth method; format: functional
Candida albicans [8] = test: Antifungal activity against FCZ-resistant Candida albicans SC5314 assessed as growth inhibition measured after 48 hrs incubation by CLSI based micro-dilution broth method; format: functional
Candida albicans [9] = test: Antifungal activity against FCZ-resistant Candida albicans 10231 assessed as growth inhibition measured after 48 hrs incubation by CLSI based micro-dilution broth method; format: functional
Cryptococcus neoformans [10] = test: Antifungal activity against Cryptococcus neoformans 32609 assessed as growth inhibition measured after 48 hrs incubation by CLSI based micro-dilution broth method; format: functional
Nakaseomyces glabratus [11] = test: Antifungal activity against Candida glabrata 537 assessed as growth inhibition measured after 48 hrs incubation by CLSI based micro-dilution broth method; format: functional
Pichia kudriavzevii [12] = test: Antifungal activity against Candida krusei 4996 assessed as growth inhibition measured after 48 hrs incubation by CLSI based micro-dilution broth method; format: functional
Candida parapsilosis = test: Antifungal activity against Candida parapsilosis 22019 assessed as growth inhibition measured after 48 hrs incubation by CLSI based micro-dilution broth method; format: functional; conditions: Lodderomyces parapsilosis
Candida tropicalis = test: Antifungal activity against Candida tropicalis 8915 assessed as growth inhibition measured after 48 hrs incubation by CLSI based micro-dilution broth method; format: functional
[Candida] auris [13] = Antifungal activity against FCZ-resistant Candida auris 918 assessed as growth inhibition measured after 48 hrs incubation by CLSI based micro-dilution broth method; format: functional; conditions: Candidozyma auris
[Candida] auris [14] = Antifungal activity against FCZ-resistant Candida auris 919 assessed as growth inhibition measured after 48 hrs incubation by CLSI based micro-dilution broth method; format: functional; conditions: Candidozyma auris
[15] = Cytotoxicity against human HUVEC cells assessed as cell viability measured after 24 hrs by CCK-8 assay; format: toxicity, cell-based
[16] = Cytotoxicity against human HUVEC cells assessed as cell viability at 16 microg/ml measured after 24 hrs by CCK-8 assay relative to control; format: toxicity, cell-based; conditions: at 16 µg/mL, read-out: Activity
[17] = Hemolytic activity in rabbit Red blood cell assessed as hemolysis rate at 64 microg/ml incubated for 1 hr; format: toxicity, cell-based, Oryctolagus cuniculus, Erythrocyte; conditions: red blood cells, at 64 µg/mL, read-out: Activity
Candida albicans [18] = test: In vivo antifungal activity against Candida albicans SC5314 infected in C57BL/6J mouse assessed as reduction in fungal burden in kidney at 10 mg/kg, po treated once a day for 2 days; format: functional, organism-based; conditions: time 2.0 day
Candida albicans [19] = test: Antifungal activity against FCZ-resistant Candida albicans strain 901 assessed as growth inhibition measured after 48 hrs incubation by CLSI based micro-dilution broth method; format: functional
Candida albicans [20] = test: Antifungal activity against FCZ-resistant Candida albicans strains assessed as growth inhibition measured after 48 hrs incubation by CLSI based micro-dilution broth method; format: functional
Candida albicans [21] = test: Antifungal activity against FCZ-resistant Candida albicans strains assessed as growth inhibition in presence of (E)-2-((4,6-Bis((4-fluorobenzyl)amino)-1,3,5-triazin-2-yl)hydrazineylidene)methyl)-4-nitrophenol measured after 48 hrs incubation by CLSI based micro-dilution broth method; format: functional
Candida albicans [22] = test: Antifungal activity against FCZ-resistant Candida albicans SC5314 assessed as growth inhibition at 4 microg/ml measured at 12 hrs incubation by time growth assay; format: functional, organism-based; conditions: dose 4.0 µg/ml
Nakaseomyces glabratus [23] = test: Antifungal activity against FCZ-resistant Candida glabrata 537 assessed as growth inhibition at 4 microg/ml measured at 12 hrs incubation by time growth assay; format: functional, organism-based; conditions: dose 4.0 µg/ml
Cryptococcus neoformans [24] = test: Antifungal activity against FCZ-resistant Cryptococcus neoformans 32609 assessed as growth inhibition at 1 microg/ml measured at 24 hrs incubation by time growth assay; format: functional, organism-based; conditions: dose 1.0 µg/ml
Pichia kudriavzevii [25] = test: Antifungal activity against FCZ-resistant Candida krusei 4996 assessed as growth inhibition at 32 microg/ml measured at 24 hrs incubation by time growth assay; format: functional, organism-based; conditions: dose 32.0 µg/ml
[26] = target: T1, Lanosterol 14-alpha demethylase (Candida albicans (strain SC5314 / ATCC MYA-2876) (Yeast), UniProt P10613); test: Inhibition of CYP51 in Candida albicans SC5314 assessed as decrease in ergosterol biosynthesis at 4 microg/ml measured after 8 hrs by GC-MS analysis (reference value: 88.32%); set-up: scale not given: the % may be the effect or the level left; conditions: at 4 µg/mL
T1 sequence (P10613 whole entry): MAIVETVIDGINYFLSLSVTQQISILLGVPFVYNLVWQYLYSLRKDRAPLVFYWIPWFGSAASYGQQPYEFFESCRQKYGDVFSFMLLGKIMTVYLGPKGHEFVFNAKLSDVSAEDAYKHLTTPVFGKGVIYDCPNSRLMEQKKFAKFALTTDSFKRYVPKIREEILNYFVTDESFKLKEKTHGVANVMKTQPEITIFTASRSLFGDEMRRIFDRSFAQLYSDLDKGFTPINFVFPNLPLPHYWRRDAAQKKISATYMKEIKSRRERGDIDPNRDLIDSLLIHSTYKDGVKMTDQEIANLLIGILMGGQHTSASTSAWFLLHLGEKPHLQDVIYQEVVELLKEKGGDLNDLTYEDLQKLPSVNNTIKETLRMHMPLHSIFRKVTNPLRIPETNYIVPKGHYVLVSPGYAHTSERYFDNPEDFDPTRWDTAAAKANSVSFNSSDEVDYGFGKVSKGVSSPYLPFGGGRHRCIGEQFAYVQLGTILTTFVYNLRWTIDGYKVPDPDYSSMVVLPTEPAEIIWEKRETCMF

[27] = target: T1, Lanosterol 14-alpha demethylase; test: Inhibition of CYP51 in Candida albicans SC5314 assessed as accumulation of eburicol at 4 microg/ml measured after 8 hrs by GC-MS analysis; conditions: dose 4 µg/ml
[28] = target: T1, Lanosterol 14-alpha demethylase; test: Inhibition of CYP51 in Candida albicans SC5314 assessed as accumulation of obtusifoliol at 4 microg/ml measured after 8 hrs by GC-MS analysis; conditions: dose 4 µg/ml
[29] = target: T1, Lanosterol 14-alpha demethylase; test: Inhibition of CYP51 in Candida albicans SC5314 assessed as accumulation of 14alpha-methylfecosterol at 4 microg/ml measured after 8 hrs by GC-MS analysis; conditions: dose 4 µg/ml
Candida albicans [30] = test: In vivo antifungal activity against Candida albicans SC5314 infected in C57BL/6J mouse assessed as reduction in fungal burden in kidney at 0.5 mg/kg, po treated once a day for 2 days; format: functional, organism-based; conditions: time 2.0 day
[31] = Hemolytic activity in rabbit Red blood cell assessed as hemolysis rate at 8 microg/ml incubated for 1 hr; format: toxicity, cell-based, Oryctolagus cuniculus, Erythrocyte; conditions: red blood cells, at 8 µg/mL, read-out: Activity

| Compound | MIC80 (Candida albicans [3]) [µg/mL] | fractional inhibitory concentration index (FICI) (Candida albicans [4]) | MIC80 (Candida albicans [5]) [µg/mL] | MIC80 (Candida albicans [6]) [µg/mL] | fractional inhibitory concentration index (FICI) (Candida albicans [7]) | MIC80 (Candida albicans [8]) [µg/mL] | MIC80 (Candida albicans [9]) [µg/mL] | MIC80 (Cryptococcus neoformans [10]) [µg/mL] | MIC80 (Nakaseomyces glabratus [11]) [µg/mL] | MIC80 (Pichia kudriavzevii [12]) [µg/mL] | MIC80 (Candida parapsilosis) [µg/mL] | MIC80 (Candida tropicalis) [µg/mL] | MIC80 ([Candida] auris [13]) [µg/mL] | MIC80 ([Candida] auris [14]) [µg/mL] | viability at 24 h, 16 microg/ml [16] [%] | hemolysis at 1 h, 64 microg/ml [17] [%] | MIC80 (Candida albicans [19]) [µg/mL] | MIC80 (Candida albicans [20]) [µg/mL] | other results |
| --- | --- | --- | --- | --- | --- | --- | --- | --- | --- | --- | --- | --- | --- | --- | --- | --- | --- | --- | --- |
| Cc1ncc2n1-c1ccc(Cl)cc1C(c1ccccc1F)=NC2 [MIDAZOLAM] |  |  |  |  |  |  |  |  |  |  |  |  |  |  |  |  |  |  | half-life [1]: 3.09 min; microsomal CLint [2]: 1120 µL/min/mg |
| NCCOCCOCCNC(=O)Cc1ccc(Nc2nc(NCc3ccc(F)cc3)nc(NCC3CCCCC3)n2)cc1 | 16 | 0.63 | 32 (≈ 53.8 µM) | 8 | 0.38 | 16 (≈ 26.9 µM) | 32 (≈ 53.8 µM) | 16 (≈ 26.9 µM) | 32 (≈ 53.8 µM) | 32 (≈ 53.8 µM) | 32 (≈ 53.8 µM) | 32 (≈ 53.8 µM) | 32 (≈ 53.8 µM) | 32 (≈ 53.8 µM) | 89.8 | 3.48 |  |  | IC50 at 24 h [15]: 48.2 µg/mL (≈ 81.1 µM); Activity (Candida albicans [18]): Active |
| O=[N+]([O-])c1cccc(/C=N/Nc2nc(NCc3ccc(F)cc3)nc(NCc3ccc(F)cc3)n2)c1O | 0.25 | 0.25 | 1 (≈ 1.97 µM) | 0.25 | 0.38 | 8 (≈ 15.8 µM) | 32 (≈ 63.2 µM) | 1 (≈ 1.97 µM) | 1 (≈ 1.97 µM) | 2 (≈ 3.95 µM) | 2 (≈ 3.95 µM) | 2 (≈ 3.95 µM) | 4 (≈ 7.9 µM) | 32 (≈ 63.2 µM) |  |  | 2 (≈ 3.95 µM) |  |  |
| OC(Cn1cncn1)(Cn1cncn1)c1ccc(F)cc1F [FLUCONAZOLE] |  |  | > 64 |  |  | 0.5 (≈ 1.63 µM) | 64 (≈ 209 µM) | 2 (≈ 6.53 µM) | 1 (≈ 3.27 µM) | 64 (≈ 209 µM) | 2 (≈ 6.53 µM) | 0.5 (≈ 1.63 µM) | > 64 | > 64 | 82.8 | 23.9 | > 64 | > 64 | MIC80 (Candida albicans [21]): 1 µg/mL; Activity (Candida albicans [22]): Active; Activity (Nakaseomyces glabratus [23]): inactive; Activity (Cryptococcus neoformans [24]): inactive; Activity (Pichia kudriavzevii [25]): Active; Activity [26]: 2.91%; Activity [27]: Active; Activity [28]: Active; Activity [29]: Active; Activity (Candida albicans [30]): Active |
| O=[N+]([O-])c1cccc(O)c1/C=N/Nc1nc(NCc2ccc(F)cc2)nc(NCc2ccc(F)cc2)n1 | 0.25 | 0.19 | 4 (≈ 7.9 µM) | 1 | 0.38 | > 64 | > 64 | > 64 | 2 (≈ 3.95 µM) | > 64 | > 64 | > 64 | > 64 | > 64 |  |  | 4 (≈ 7.9 µM) | 4 (≈ 7.9 µM) |  |
| C[C@@H]1[C@H](O)[C@@H](C)/C=C/C=C/C=C/C=C/C=C/C=C/C=C/[C@H](O[C@@H]2O[C@H](C)[C@@H](O)[C@H](N)[C@@H]2O)C[C@@H]2O[C@](O)(C[C@@H](O)C[C@@H](O)[C@H](O)CC[C@@H](O)C[C@@H](O)CC(=O)O[C@H]1C)C[C@H](O)[C@H]2C(=O)O [AMPHOTERICIN B] |  |  |  |  |  |  |  |  |  |  |  |  |  |  |  |  |  |  | hemolysis at 1 h, 8 microg/ml [31]: 50.7% |
